The values below come from US20140045826A1, “METHODS AND COMPOSITIONS FOR TREATING NEURODEGENERATIVE DISEASES” (ARIAD PHARMACEUTICALS, INC., priority 2011, published 2014).

One data set has as its target IRR (Homo sapiens, UniProt P14616). Briefly: in vitro kinase assay. It is filed as biochemical.
A further data set deals with T1, AXL (Homo sapiens, UniProt P30530).
T1 sequence (P30530 26-894): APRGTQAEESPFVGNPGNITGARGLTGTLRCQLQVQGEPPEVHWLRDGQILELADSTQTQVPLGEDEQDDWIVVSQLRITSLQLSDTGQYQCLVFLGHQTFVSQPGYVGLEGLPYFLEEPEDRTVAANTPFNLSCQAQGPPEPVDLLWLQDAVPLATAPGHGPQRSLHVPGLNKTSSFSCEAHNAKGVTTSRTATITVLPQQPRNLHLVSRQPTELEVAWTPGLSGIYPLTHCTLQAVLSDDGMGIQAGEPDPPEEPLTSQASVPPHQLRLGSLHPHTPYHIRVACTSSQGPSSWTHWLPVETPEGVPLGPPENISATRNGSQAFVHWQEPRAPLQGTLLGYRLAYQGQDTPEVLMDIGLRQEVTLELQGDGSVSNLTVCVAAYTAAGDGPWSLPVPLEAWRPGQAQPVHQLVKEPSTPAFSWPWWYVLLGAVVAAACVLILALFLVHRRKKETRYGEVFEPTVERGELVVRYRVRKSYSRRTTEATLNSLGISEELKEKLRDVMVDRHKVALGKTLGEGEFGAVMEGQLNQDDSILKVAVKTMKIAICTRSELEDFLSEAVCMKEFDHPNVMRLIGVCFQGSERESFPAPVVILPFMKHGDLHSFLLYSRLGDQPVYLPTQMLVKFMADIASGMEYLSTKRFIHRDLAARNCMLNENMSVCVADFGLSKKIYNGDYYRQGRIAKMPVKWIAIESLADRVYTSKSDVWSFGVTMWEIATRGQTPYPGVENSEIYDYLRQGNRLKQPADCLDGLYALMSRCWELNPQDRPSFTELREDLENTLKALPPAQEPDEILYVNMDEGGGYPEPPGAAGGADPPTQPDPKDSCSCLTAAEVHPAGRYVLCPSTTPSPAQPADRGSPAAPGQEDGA
The data set is described as follows: in vitro kinase assay. It is filed as biochemical.

The next data set deals with TYK1 (Homo sapiens, UniProt P29376). Briefly: in vitro kinase assay. It is filed as biochemical.
For the next data set, the target named is T2, ZAP70 (Homo sapiens, UniProt P43403).
T2 sequence (P43403 1-619): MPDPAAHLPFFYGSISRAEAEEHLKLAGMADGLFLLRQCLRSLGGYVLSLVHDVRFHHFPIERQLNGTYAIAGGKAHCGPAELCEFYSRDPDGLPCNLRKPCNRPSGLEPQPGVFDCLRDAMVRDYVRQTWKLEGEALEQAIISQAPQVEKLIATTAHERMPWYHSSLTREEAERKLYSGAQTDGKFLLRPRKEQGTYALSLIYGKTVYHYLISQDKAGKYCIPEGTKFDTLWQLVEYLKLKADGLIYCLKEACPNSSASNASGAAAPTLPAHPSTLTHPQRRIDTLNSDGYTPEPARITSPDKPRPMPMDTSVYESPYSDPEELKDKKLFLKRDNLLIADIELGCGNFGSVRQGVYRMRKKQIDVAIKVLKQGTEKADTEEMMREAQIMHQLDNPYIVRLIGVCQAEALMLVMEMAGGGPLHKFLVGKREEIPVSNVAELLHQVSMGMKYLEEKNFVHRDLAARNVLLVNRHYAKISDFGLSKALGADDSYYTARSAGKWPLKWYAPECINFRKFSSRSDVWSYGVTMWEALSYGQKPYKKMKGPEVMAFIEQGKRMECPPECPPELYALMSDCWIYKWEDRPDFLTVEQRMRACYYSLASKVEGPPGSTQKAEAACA
The data set is described as follows: in vitro kinase assay. It is filed as biochemical.

A short description of data set [1]: phase 1 clinical trial, safety and tolerability.
The next data set concerns the target ROS (Homo sapiens, UniProt P08922). The data set is described as follows: in vitro kinase assay. It is filed as biochemical.
A further data set has as its target mTOR (Homo sapiens, UniProt P42345). The data set is described as follows: in vitro kinase assay. It is filed as biochemical.
The next data set has as its target ALK (Homo sapiens, UniProt Q9UM73). Briefly: in vitro kinase assay. It is filed as biochemical.
The target of another data set is T3, Aurora C (Homo sapiens, UniProt Q9UQB9).
T3 sequence (Q9UQB9 1-309): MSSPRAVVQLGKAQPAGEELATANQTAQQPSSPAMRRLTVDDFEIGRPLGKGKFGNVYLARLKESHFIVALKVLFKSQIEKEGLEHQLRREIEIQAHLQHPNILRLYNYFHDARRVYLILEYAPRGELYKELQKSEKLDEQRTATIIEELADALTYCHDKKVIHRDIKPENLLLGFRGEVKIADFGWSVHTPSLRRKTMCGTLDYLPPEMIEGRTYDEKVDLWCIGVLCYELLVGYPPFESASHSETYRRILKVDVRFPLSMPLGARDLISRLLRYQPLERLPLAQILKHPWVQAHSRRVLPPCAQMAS
Briefly: in vitro kinase assay. It is filed as biochemical.

A further data set is described as follows: in vivo. The conditions noted are these: rat, plasma, po, 5 mg/kg.
A further data set addresses T4, ITK (Homo sapiens, UniProt Q08881).
T4 sequence (Q08881 1-620): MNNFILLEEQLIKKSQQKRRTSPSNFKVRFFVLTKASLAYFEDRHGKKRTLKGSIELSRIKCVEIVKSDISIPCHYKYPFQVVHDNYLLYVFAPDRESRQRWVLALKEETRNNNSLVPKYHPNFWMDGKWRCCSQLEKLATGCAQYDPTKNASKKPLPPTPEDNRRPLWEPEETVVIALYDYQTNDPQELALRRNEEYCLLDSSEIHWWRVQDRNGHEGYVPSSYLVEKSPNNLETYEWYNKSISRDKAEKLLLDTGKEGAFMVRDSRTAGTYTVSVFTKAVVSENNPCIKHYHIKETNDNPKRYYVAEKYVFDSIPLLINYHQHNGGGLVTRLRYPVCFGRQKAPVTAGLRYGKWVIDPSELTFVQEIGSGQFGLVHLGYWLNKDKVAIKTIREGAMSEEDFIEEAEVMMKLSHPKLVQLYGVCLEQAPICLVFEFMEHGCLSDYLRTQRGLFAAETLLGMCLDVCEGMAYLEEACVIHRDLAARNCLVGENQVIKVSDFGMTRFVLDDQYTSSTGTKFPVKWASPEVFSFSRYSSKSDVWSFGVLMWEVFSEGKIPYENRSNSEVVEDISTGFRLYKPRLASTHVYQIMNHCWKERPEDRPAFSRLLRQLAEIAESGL
Briefly: in vitro kinase assay. It is filed as biochemical.

The target of the next data set is PKC8. Briefly: in vitro kinase assay. It is filed as biochemical.
Another data set addresses PGP efflux pump (Homo sapiens, UniProt P08183). The data set is described as follows: substrate for the PGP efflux pump.
A further data set addresses T5, CTK (Homo sapiens, UniProt P42679).
T5 sequence (P42679 1-507): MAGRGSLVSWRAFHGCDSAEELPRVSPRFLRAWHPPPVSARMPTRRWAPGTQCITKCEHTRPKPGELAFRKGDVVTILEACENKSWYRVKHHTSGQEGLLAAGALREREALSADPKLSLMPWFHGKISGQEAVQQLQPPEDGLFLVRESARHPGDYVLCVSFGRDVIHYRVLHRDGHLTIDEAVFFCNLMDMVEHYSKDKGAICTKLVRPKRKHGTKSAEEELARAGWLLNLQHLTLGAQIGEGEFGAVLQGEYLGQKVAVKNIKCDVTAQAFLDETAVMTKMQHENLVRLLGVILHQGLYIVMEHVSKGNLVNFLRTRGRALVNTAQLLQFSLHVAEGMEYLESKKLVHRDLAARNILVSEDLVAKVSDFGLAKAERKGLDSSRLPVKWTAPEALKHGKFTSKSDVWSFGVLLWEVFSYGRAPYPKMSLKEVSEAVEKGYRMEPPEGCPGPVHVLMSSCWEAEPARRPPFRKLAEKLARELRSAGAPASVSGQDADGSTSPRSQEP
Briefly: in vitro kinase assay. It is filed as biochemical.

For data set [2] the following is noted: mice and humans; cited from earlier work.

Sequence of PGP efflux pump (P08183 whole entry): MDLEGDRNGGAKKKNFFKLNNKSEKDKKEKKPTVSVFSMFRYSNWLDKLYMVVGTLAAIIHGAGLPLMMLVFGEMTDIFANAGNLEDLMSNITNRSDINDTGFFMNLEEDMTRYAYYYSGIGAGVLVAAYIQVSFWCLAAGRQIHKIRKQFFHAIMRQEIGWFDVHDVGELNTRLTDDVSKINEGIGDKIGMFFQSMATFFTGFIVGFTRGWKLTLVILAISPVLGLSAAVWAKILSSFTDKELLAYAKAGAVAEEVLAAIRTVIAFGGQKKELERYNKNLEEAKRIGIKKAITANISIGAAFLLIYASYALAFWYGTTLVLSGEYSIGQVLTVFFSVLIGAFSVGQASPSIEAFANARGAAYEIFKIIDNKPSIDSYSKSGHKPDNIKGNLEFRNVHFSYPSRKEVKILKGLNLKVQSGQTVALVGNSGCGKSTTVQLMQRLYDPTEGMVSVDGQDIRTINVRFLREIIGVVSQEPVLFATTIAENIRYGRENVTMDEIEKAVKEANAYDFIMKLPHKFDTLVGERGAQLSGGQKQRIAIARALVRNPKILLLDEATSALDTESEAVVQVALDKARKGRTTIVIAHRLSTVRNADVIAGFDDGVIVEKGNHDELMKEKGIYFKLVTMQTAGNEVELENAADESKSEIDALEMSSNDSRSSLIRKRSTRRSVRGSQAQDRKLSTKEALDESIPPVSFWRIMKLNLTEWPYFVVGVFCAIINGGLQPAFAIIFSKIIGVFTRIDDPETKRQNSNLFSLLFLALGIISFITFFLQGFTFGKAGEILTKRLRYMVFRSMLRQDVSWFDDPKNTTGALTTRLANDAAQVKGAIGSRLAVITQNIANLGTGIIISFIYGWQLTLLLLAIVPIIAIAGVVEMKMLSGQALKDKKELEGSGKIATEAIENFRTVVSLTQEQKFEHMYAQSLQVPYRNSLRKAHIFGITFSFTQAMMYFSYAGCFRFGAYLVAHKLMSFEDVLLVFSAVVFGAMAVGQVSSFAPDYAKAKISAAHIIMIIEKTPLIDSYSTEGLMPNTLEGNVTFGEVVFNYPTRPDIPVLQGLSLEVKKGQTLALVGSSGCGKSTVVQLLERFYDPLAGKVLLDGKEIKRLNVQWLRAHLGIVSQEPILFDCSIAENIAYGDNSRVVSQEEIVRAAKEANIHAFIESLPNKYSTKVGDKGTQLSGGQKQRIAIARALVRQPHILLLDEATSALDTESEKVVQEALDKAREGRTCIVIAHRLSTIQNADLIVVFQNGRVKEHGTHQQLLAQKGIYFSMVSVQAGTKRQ
Sequence of IRR (P14616 27-1297): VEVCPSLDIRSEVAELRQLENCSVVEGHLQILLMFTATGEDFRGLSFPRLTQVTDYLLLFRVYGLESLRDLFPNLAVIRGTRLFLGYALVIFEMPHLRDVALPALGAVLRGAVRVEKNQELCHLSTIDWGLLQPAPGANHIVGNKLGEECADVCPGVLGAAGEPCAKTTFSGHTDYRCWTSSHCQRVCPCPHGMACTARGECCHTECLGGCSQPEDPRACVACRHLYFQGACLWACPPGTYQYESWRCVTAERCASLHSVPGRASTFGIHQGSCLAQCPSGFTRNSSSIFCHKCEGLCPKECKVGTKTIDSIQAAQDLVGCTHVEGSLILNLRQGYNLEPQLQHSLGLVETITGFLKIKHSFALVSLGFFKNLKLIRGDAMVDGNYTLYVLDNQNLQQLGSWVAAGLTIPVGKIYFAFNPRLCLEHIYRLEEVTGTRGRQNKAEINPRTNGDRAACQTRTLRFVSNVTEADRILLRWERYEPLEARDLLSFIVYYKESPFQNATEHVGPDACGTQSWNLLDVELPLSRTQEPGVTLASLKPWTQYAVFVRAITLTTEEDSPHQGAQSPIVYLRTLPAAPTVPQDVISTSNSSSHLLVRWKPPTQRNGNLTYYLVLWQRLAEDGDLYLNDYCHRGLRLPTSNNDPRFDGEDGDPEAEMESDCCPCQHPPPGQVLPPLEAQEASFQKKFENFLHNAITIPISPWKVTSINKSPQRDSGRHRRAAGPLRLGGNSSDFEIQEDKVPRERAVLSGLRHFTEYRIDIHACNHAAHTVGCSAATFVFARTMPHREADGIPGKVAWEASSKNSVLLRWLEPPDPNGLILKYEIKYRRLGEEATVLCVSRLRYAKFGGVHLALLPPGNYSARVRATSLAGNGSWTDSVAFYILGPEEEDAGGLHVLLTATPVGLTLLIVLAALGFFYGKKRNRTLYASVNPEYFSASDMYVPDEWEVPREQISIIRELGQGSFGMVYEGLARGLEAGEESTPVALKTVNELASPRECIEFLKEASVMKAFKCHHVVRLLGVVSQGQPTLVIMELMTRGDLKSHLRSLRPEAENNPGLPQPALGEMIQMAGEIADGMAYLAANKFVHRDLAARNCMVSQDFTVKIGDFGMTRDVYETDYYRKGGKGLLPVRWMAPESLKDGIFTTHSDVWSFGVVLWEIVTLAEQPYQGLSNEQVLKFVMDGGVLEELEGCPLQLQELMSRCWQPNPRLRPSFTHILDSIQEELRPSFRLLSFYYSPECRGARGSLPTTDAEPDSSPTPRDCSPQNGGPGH
Sequence of TYK1 (P29376 17-864, species assumed): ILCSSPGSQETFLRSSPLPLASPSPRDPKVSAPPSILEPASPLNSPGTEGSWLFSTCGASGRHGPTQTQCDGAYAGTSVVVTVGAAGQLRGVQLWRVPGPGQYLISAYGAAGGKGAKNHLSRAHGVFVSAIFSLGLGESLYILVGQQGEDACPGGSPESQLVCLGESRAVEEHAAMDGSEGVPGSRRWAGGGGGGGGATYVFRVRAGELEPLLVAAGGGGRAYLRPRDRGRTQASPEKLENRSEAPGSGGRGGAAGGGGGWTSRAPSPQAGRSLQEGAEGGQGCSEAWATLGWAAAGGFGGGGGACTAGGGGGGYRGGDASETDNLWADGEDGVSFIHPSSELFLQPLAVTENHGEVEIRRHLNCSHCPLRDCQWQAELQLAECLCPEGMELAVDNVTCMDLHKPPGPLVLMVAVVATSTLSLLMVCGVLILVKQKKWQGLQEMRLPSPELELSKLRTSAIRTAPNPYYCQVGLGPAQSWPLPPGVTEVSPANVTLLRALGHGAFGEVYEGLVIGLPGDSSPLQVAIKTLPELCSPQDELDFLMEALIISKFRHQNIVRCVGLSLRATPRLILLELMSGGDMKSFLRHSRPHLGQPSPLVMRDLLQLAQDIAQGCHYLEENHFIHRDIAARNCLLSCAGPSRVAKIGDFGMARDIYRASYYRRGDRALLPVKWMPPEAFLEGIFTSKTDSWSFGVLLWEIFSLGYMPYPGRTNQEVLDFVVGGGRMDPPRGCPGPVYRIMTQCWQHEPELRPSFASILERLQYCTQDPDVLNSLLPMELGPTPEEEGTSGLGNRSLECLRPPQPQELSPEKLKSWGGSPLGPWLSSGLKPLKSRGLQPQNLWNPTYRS
Sequence of ALK (Q9UM73 19-1620): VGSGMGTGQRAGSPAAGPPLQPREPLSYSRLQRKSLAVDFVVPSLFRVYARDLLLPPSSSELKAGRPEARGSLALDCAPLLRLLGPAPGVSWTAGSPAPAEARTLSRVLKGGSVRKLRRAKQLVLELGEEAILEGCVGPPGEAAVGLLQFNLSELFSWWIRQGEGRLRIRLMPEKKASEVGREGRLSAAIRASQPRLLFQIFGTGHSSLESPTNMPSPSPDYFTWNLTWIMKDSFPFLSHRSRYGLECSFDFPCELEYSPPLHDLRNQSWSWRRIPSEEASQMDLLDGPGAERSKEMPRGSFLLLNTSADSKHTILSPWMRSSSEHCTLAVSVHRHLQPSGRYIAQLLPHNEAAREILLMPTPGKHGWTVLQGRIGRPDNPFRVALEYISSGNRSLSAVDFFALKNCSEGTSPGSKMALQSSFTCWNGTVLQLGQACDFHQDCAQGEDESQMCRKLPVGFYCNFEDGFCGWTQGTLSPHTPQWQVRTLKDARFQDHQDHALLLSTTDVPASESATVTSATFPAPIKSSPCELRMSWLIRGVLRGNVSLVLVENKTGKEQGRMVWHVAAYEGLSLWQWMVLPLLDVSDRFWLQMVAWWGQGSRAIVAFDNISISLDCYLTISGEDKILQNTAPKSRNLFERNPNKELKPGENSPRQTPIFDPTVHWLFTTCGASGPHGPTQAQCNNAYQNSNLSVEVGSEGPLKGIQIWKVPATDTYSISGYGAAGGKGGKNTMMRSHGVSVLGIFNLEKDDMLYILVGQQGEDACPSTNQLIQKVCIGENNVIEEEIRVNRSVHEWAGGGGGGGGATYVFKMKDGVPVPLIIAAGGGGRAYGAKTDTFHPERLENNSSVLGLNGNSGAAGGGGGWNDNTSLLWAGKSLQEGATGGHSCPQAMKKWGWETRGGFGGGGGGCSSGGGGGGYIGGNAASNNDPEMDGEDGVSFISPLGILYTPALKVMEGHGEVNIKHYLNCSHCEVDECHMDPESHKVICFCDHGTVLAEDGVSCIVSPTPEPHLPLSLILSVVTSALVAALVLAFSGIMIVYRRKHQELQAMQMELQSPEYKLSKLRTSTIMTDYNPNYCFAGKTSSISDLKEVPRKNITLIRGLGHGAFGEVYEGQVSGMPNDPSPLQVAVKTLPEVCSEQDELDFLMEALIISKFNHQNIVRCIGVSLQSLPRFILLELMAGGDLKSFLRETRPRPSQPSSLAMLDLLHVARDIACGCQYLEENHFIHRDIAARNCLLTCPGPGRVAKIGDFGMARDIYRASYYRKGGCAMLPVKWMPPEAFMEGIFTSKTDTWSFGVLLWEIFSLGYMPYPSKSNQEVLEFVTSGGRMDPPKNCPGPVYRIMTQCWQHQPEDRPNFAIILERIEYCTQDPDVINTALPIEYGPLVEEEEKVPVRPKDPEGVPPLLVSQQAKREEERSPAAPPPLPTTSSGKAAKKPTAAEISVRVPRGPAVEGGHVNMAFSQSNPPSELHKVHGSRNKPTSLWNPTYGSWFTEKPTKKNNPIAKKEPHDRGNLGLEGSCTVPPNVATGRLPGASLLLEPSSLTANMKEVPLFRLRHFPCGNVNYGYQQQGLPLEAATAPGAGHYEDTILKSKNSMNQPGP

One may read the IC50 as the concentration that gives 50% inhibition. What is called Cmax is the highest concentration seen after dosing. `Cc1ccc(C(=O)Nc2ccc(CN3CCN(C)CC3)c(C(F)(F)F)c2)cc1C#Cc1cnc2cccnn12` [ponatinib, 3-(Imidazo[1,2-b]pyridazin-3-ylethynyl)-4-methyl-N-(4-((4-methylpiperazin-1-yl)methyl)-3-(trifluoromethyl)phenyl)benzamide]: the IC50 against IRR, against AXL, against TYK1, at ZAP70, against ROS and against mTOR was more than 1000 nM throughout. Moreover, the IC50 against ALK, at Aurora C, at ITK, against PKC8 and against CTK was more than 1000 nM in each case. Further, the “dose limiting toxicities (DLTs)” value in data set [1] (45 mg cohort) is listed as “a reversible rash was seen with one patient”; in data set [1] (60 mg cohort) it was “four patients developed reversible pancreatic related DLT (pancreatitis)”; in data set [1] (2 to 30 mg cohorts), “no dose limiting toxicities (DLTs) were observed”. Further, the “maximum tolerated dose (MTD)” value in data set [1] (patients with refractory hematological cancers, oral, dose escalation 2-60 mg) is 45 mg. The “drug-related adverse events of any grade: anemia” value in data set [1] (phase 1 patients) worked out at 12%. Moreover, in [1] (phase 1 patients), the “drug-related adverse events of any grade: lipase increase” value turned out to be 12%. Further, the “drug-related adverse events of any grade: nausea” value in [1] (phase 1 patients) is listed as 12%. Besides, in data set [1] (phase 1 patients), the “drug-related adverse events of any grade: rash” value was found to be 12%. Besides, the “drug-related adverse events of any grade: thrombocytopenia” value in data set [1] (phase 1 patients) was found to be 25%. Besides, the tolerability entry in [1] (phase 1 study conclusion) was “well tolerated”. In “in vivo”, the Cmax was found to be 175 ng/mL. At PGP efflux pump, the “substrate for the PGP efflux pump” value is listed as “poor substrate”.
Consider `Cc1ccc(NC(=O)c2ccc(CN3CCN(C)CC3)cc2)cc1Nc1nccc(-c2cccnc2)n1` [STI-571], for which the “penetration of the blood-brain barrier” value in data set [2] is “poor penetration of the blood-brain barrier”.
